The values that follow come from patent US4748232A, “Peptide production and use thereof” (Suntory Limited, priority 1983, dated 1988).

For one series, the system named is Male rats. The series can be described thus: Diuretic and natriuretic action in anesthetized rats (urine collected via bladder cannula). The format is in vivo, rat. The following applies: 1.21 μ mole, group V. The protocol:
To keep the respiratory tract open, a tracheal cannula (PE-240 Clay-Adams) was inserted into the trachea. An arterial cannula (PE-50) was inserted into a femoral artery for measurement of the blood pressure, and a venous cannula was inserted into a femoral vein for the administration of Ringer's solution. 1.2 ml of Ringer's solution was injected for ten minutes, and subsequently, was constantly infused at a flow rate of 1.2 ml/hour.
A bladder cannula made of silastic tube with an inner diameter of 0.02 inches and an outer diameter of 0.037 inches was inserted into the bladder, and via the cannula, a urine sample was collected into a test tube. The collection of urine was carried out for 30 minutes before administration of the test compound, and every five minutes after the administration.
The control group (group I) was administered 50 μl of physiological saline containing only bacitracin.
Groups I to IV each consisted of three animals, and group V consisted of four animals.

A short description of series [1]: Immunogenicity and toxicity on administration. The series is classed as in vivo.
A short description of another series: Solubility in solvents. The series is classed as physicochemical.

Regarding `NS(=O)(=O)c1cc(C(=O)O)c(NCc2ccco2)cc1Cl` [Furosemide, furosemide], the “Urine volume A” value with Male rats (A: sample collected 5 minutes after administration) stood at 167 ± 28 µL/min. Also, the “Urine volume B” value in the series with Male rats (B: sample collected 30 minutes before administration) worked out at 8.6 ± 1.9 µL/min.
On to `CC[C@H](C)[C@@H]1NC(=O)[C@H](CCCNC(=N)N)NC(=O)[C@H](CC(=O)O)NC(=O)[C@H](CCSC)NC(=O)[C@H](CCCNC(=N)N)NC(=O)CNC(=O)CNC(=O)[C@H](Cc2ccccc2)NC(=O)[C@@H](NC(=O)[C@H](CO)NC(=O)[C@H](CO)NC(=O)[C@H](CCCNC(=N)N)NC(=O)[C@H](CCCNC(=N)N)NC(=O)[C@H](CC(C)C)NC(=O)[C@@H](N)CO)CSSC[C@@H](C(=O)N[C@@H](CC(N)=O)C(=O)N[C@@H](CO)C(=O)N[C@@H](Cc2ccccc2)C(=O)N[C@@H](CCCNC(=N)N)C(=O)N[C@@H](Cc2ccc(O)cc2)C(=O)O)NC(=O)CNC(=O)[C@H](CC(C)C)NC(=O)CNC(=O)[C@H](CO)NC(=O)[C@H](CCC(N)=O)NC(=O)[C@H](C)NC(=O)CNC1=O` [α-hANP, α-human atrial natriuretic polypeptide], for which the toxicity result in series [1] (gradually hydrolized in a body providing the L-amino acids) is reported as “little toxicity”. For the same compound, the anaphylaxis shock result in series [1] (repeated administration) was “does not cause anaphylaxis shock”. In series [1] (repeated administration), the production of antibodies result was “does not stimulate production of antibodies”. Besides, the Solubility in solvents entry in “Solubility in solvents” (ethyl acetate, butyl acetate, ethyl ether, hexane, petroleum ether, benzene, and chloroform) was “insoluble”; in “Solubility in solvents” (methanol, and acetic acid), “partially”; in the series “Solubility in solvents” (water), “soluble”.
